This note sets out measurements from patent publication US20250051345A1, “PYRIDINE-3-CARBOXYLATE COMPOUNDS AS CAV1.2 ACTIVATORS” (Novartis AG, priority 2021, published 2025).

pEC50: −log10 of the molar value.

For series [1], the system named is cFos mRNA. As to the kind of experiment: cFos mRNA induction in cortex of wild-type mice (PK-PD). To be noted: 3 mg/kg ip, one hour after administration. In kind it is in vivo, mouse. As for the experimental part:
(§1) Compound administration and brain tissue collection.
Quantification of cFos mRNA induction. Tissue homogenization was performed using TissueLyser system for 96 well plates (Qiagen). First, frozen cortical samples were thawed, removed from RNAlater, and placed into TissueLyser tubes along with Buffer RLT containing 0.5% Reagent DX and one 5 mm TissueLyser metal bead. The TissueLyser tubes were loaded into a TissueLyser II tissue homogenizer for 3 rounds of homogenization, with each round lasting 5 minutes at 30 Hz bead-beating frequency. Total RNA was purified from the homogenate using RNeasy 96 Plus kit (Qiagen), RNA concentration and A260/A280 ratio were quantified via the Nanodrop (ThermoFisher), and all samples were normalized to 100 ng/μl concentration. […]
Quantitative PCR was performed on the cDNA samples using Quantitect Multiplex RT-PCR kit (Qiagen) in a 384-well assay format. […] On the ViiA7 Real-Time PCR system (ThermoFisher), the samples were heated to 95° C. for 15 minutes then cycled between 94° C. for 45 seconds and 60° C. for 45 seconds for 45 cycles. cFos Ct values were exported, normalized to GAPDH Ct values, and converted to relative fold change in expression using the delta-delta Ct relative quantification method. cFos fold changes between compound treatments and vehicle were analyzed by one-way ANOVA, followed by Tukey's post-hoc comparisons.

Series [2] concerns the target T1, human Cav1.2 (Homo sapiens (Human), UniProt Q13936). As to the kind of experiment: QPatch channel biophysics assay (V1/2 voltage shift, tau of inactivation) in the Cav1.2-HEK293 (AUX) cell line. In kind it is cell-based. As for the experimental part: (§2) Clonal isolation was achieved under Neomycin selection.
(§3) Each experimental run uses 1.5 mL of cells.
(§4) The protocol had eight liquid periods. […] The protocol had four liquid periods.
On the technique in general: In patch-clamp work, channel activity is measured electrically.

Series [3] is described as follows: Compound exposure in brain (cerebellum) and blood of wild-type mice. It is filed as in vivo, mouse. The settings on record: C57BL/6J male mice, i.p., one hour after administration.
Text: as §1
Quantification of compound exposure.

Series [4] addresses T1, human Cav1.2. As to the kind of experiment: Sophion QPatch dose-response assay, whole-cell voltage clamp of barium currents in the Cav1.2-HEK293 (AUX) cell line. In kind it is cell-based. To be noted: for QPatch Emax: maximal fold change of peak inward current. As to the method: as §2, §3, §4
The mark [5] stands for this setting: shift of half-way channel activation voltage V1/2.
The mark [6] stands for this setting: 6-point dose response, 10 determinations per concentration, n = 1 unless stated.
Where [7] appears, read: comparative examples, single enantiomers of reported racemates.

T1 sequence (Q13936 whole entry): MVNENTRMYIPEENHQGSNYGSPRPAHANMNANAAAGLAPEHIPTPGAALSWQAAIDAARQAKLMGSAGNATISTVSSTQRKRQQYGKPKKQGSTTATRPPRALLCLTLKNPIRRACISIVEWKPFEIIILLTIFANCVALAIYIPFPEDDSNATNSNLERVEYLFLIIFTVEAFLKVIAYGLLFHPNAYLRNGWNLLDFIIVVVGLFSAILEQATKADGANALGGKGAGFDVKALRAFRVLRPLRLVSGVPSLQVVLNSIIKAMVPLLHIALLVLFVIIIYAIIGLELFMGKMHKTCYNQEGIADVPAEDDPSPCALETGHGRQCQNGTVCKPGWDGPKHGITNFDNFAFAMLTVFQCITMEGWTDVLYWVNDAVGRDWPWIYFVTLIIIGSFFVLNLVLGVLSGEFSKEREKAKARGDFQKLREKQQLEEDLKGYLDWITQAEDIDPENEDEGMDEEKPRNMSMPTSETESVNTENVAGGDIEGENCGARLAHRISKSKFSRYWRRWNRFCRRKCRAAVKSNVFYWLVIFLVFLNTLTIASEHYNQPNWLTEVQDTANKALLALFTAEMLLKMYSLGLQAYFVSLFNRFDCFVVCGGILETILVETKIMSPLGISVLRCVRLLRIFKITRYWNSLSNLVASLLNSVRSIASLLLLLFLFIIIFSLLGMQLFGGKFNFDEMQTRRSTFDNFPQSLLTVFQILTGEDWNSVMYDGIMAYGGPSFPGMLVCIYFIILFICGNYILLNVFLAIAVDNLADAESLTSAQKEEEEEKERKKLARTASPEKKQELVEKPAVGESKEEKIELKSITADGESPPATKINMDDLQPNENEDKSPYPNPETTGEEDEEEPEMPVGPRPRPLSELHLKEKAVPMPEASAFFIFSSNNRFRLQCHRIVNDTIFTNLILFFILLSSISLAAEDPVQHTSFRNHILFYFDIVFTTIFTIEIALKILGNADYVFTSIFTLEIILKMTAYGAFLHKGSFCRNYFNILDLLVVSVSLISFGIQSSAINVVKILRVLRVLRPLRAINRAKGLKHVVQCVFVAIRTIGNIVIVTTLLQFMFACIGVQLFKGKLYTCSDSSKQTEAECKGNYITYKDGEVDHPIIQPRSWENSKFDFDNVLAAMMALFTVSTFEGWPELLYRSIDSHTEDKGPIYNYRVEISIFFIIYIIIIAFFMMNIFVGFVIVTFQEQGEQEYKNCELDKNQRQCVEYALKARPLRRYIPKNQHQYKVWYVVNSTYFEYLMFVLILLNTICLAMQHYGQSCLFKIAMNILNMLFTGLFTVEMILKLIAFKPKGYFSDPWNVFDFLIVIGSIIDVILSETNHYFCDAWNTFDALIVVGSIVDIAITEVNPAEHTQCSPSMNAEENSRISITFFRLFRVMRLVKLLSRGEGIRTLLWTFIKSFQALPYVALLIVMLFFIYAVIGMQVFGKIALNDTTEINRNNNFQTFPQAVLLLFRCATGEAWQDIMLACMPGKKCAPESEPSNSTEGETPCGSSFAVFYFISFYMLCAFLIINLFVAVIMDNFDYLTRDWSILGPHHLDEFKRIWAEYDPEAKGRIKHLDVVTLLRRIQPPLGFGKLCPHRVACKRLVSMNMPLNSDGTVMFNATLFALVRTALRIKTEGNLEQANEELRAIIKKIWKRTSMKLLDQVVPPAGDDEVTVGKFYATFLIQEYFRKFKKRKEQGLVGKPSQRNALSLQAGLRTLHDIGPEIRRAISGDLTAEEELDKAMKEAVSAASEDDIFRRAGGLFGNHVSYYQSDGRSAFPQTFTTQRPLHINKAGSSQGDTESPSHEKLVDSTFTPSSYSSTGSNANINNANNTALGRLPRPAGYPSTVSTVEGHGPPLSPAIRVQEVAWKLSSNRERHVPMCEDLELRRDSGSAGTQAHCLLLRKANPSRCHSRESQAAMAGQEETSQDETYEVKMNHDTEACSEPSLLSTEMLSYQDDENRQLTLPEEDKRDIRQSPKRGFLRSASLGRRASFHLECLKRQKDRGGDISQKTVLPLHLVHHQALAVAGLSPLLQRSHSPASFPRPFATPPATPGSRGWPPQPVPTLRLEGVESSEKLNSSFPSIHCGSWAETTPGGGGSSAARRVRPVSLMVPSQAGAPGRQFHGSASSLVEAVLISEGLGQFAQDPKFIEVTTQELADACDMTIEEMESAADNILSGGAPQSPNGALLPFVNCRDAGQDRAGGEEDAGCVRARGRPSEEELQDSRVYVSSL

One may read the pEC50 as the negative decadic logarithm of the EC50, by convention in mol/L. In the case of `COC(=O)C1=C(C)NC2=C(C(=O)OC2)[C@H]1c1cncc(F)c1[C@@H](C)F` (single isomer, unassigned) [Example 1, methyl(S)-4-(5-fluoro-4-((R)-1-fluoroethyl)pyridin-3-yl)-2-methyl-5-oxo-1,4,5,7-tetrahydrofuro [3,4-b]pyridine-3-carboxylate or methyl(S)-4-(5-fluoro-4-((S)-1-fluoroethyl)pyridin-3-yl)-2-methyl-5-oxo-1,4,5,7-tetrahydrofuro [3,4-b]pyridine-3-carboxylate], the “%↑ cFOS mRNA cortex” value in series [1] is 174%. In addition, the Biophysics voltage shift in series [2] (setting [5]) is recorded as −6.6 mV. In addition, the “Brain: blood Ratio” value in series [3] is listed as 0.2. This molecule also had a pEC50 in series [4] (setting [6]) of 6.66. In addition, the “QPatch Emax” value in series [4] was 3.3.

Take `COC(=O)C1=C(C(F)F)NC2=C(C(=O)OC2)[C@H]1c1cncc(F)c1[C@@H](C)F` (single isomer, unassigned) [Example 6, methyl 2-(difluoromethyl)-4-(5-fluoro-4-(1-fluoroethyl)pyridin-3-yl)-5-oxo-1,4,5,7-tetrahydrofuro [3,4-b]pyridine-3-carboxylate]: in series [2] (setting [5]), the Biophysics voltage shift was −5.6 mV. This molecule gave a pEC50 in series [4] (setting [6]) of 6.60. The “QPatch Emax” value in series [4] is on record as 2.5.

For the molecule `COC(=O)C1=C(C)NC(C)=C([N+](=O)[O-])[C@H]1c1ccccc1C(F)(F)F` [Comparative Example 1, BayK8644], in series [4] (comparative examples), the “QPatch Emax” value is reported as 3.9.

For the molecule `CCOC(=O)C1=C(C)NC2=C(C(=O)OC2)[C@H]1c1ccccc1OCc1ccccc1` [Comparative Example 2, RS30124], the Biophysics voltage shift in series [2] (comparative examples) is given as −15.4 mV. The molecule also showed a pEC50 in series [4] (setting [7]) of 6.35. The “QPatch Emax” value in series [4] (comparative examples) is recorded as 4.3.

As to `CCOC(=O)C1=C(C)NC2=C(C(=O)OC2)[C@H]1c1ccccc1OC(F)F` [Comparative Example 3, CGP028392], the Biophysics voltage shift in series [2] (comparative examples) is reported as −6.7 mV. The molecule further gave a negative-log EC50 (pEC50) in series [4] (setting [7]) of 6.55. Moreover, the “QPatch Emax” value in series [4] (comparative examples) was 2.2.

Consider `COC(=O)C1=C(C)NC2=C(C(=O)OC2)C1c1ccccc1C` (stereo not shown) [Comparative Example 4], for which the pEC50 in series [4] (setting [7]) was 5.65. In addition, in series [4] (comparative examples), the “QPatch Emax” value came to 1.4.

As to `COC(=O)C1=C(C)NC2=C(C(=O)OC2)C1c1ccccc1C(F)(F)F` (stereo not shown) [Comparative Example 5], the Biophysics voltage shift in series [2] (comparative examples) is given as −4.3 mV. The same molecule showed a pEC50 in series [4] (setting [7]) of 6.44. In addition, the “QPatch Emax” value in series [4] (comparative examples) came out at 1.4.

On to `COC(=O)C1=C(C)NC2=C(C(=O)OC2)C1c1ccccc1OC(F)F` (stereo not shown) [Comparative Example 6], for which the Biophysics voltage shift in series [2] (comparative examples) is recorded as −7.1 mV. In addition, the pEC50 in series [4] (setting [7]) was 6.29. The “QPatch Emax” value in series [4] (comparative examples) was 1.7.

`CCOC(=O)C1=C(C)NC2=C(C(=O)OC2)C1c1ccccc1C(F)(F)F` (stereo not shown) [Comparative Example 7] had a negative logarithm of the EC50 (pEC50) in series [4] (setting [7]) of 6.03. In series [4] (comparative examples), the “QPatch Emax” value is 1.9.

Turning to `COC(=O)C1=C(CF)NC2=C(C(=O)OC2)[C@H]1c1cncc(F)c1[C@@H](C)F` [Example 2, methyl (R)-4-(5-fluoro-4-((R)-1-fluoroethyl)pyridin-3-yl)-2-(fluoromethyl)-5-oxo-1,4,5,7-tetrahydrofuro [3,4-b]pyridine-3-carboxylate], the “%↑ cFOS mRNA cortex” value in series [1] is listed as 384%. For the same molecule, in series [2] (setting [5]), the Biophysics voltage shift is recorded as −5.9 mV. The Kp at 1 h in series [3] (mouse, brain (cerebellum) / blood, ip, 3 mg/kg, read-out: Brain: blood Ratio) came to 1.5. The same molecule had a pEC50 in series [4] (setting [6]) of 7.21. Moreover, the “activity in the Sophion QPatch assay relative to the enantiomer” value in series [4] (comparison of stereoisomers) is listed as “higher activity than its corresponding enantiomer”. Moreover, the “QPatch Emax” value in series [4] is listed as 2.2.
